Results as given in US8765819B2, “Composition comprising benzoic acid in combination with organic acid preservatives as active ingredients and the use thereof” (priority 2009, dated 2014).

System: Candida strains (clinical isolates from patients suffering from Candidal vaginitis)
Experiment: Inhibition of Candida growth in broth pH 4.5 (turbidity after 72 hours)
Assay type: cell-based
Details: for Candida growth, Strain 1: Strain 1, 37.5° C.; for Candida growth, Strain 2: Strain 2, 37.5° C.; for Candida growth, Strain 3: Strain 3, 37.5° C.; for Candida growth, Strain 4: Strain 4, 37.5° C.; for Candida growth, Strain 5: Strain 5, 37.5° C.; for Candida growth, Strain 6: Strain 6, 37.5° C.; for Candida growth, Strain 7: Strain 7, 37.5° C.; for Candida growth, Strain 8: Strain 8, 37.5° C.; for Candida growth, Strain 9: Strain 9, 37.5° C.; for Candida growth, Strain 10: Strain 10, 37.5° C.; for Candida growth, Strain 11: Strain 11, 37.5° C.; for number of the 11 Candida strains that grew: of 11 strains
From the text: 1. […] Unless otherwise illustrated, the solutions in the experiments are all aqueous solutions. 2. Experimental Method: (1) Experimental Materials:
a) Experimental strains: 11 Candida strains, all of which were screened from the clinical isolates from patients suffering from Candidal vaginitis, and were capable of growing in broth comprising 0.025% (w/v) sodium benzoate.
b) Broth: 1% yeast extract powder, 9% sucrose, 0.025% Manganese sulfate (MnSO4.4H2O), 0.058% Magnesium sulphate (MgSO4.7H2O), and 0.9% lactic acid, wherein the pH value was adjusted to 4.5 and the broth was sterilized for use;
(2) Experimental Grouping:
The requirements for aseptic technique were strictly followed to prepare the following groups of sterile test tubes: • a) sodium benzoate group: a test tube containing 5 ml broth, to which 0.025% (w/v) sodium benzoate was added; • b) sodium benzoate+sodium dehydroacetate group: 6 test tubes each containing 5 ml broth, wherein 0.0025% (w/v), 0.005% (w/v), and 0.01% (w/v) sodium dehydroacetate were added to three tubes, respectively; 0.025% (w/v) sodium benzoate was added to each of the rest 3 tubes, and then 0.0025% (w/v), 0.005% (w/v), 0.01% (w/v) sodium dehydroacetate were added to them, respectively; • c) sodium benzoate+sodium propionate group: 6 test tubes each containing 5 ml broth, wherein 0.0625% (w/v), 0.125% (w/v), and 0.25% (w/v) sodium propionate were added to three tubes, respectively; 0.025% (w/v) sodium benzoate was added to each of the rest 3 tubes, and then 0.0625% (w/v), 0.125% (w/v), and 0.25% (w/v) sodium propionate were added to them, respectively; • d) sodium benzoate+potassium sorbate group: 6 test tubes each containing 5 ml broth, wherein 0.00625% (w/v), 0.0125% (w/v), and 0.025% (w/v) potassium sorbate were added to 3 tubes, respectively; 0.025% (w/v) sodium benzoate was added to each of the rest 3 tubes, and then 0.00625% (w/v), 0.0125% (w/v), and 0.025% (w/v) potassium sorbate were added to them, respectively; • e) sodium benzoate+Ethylparaben: 6 test tubes each containing 5 ml broth, wherein 0.0125% (w/v), 0.025% (w/v), and 0.05% (w/v) Ethylparaben were added to 3 tubes, respectively; 0.025% (w/v) sodium benzoate was added to each of the rest 3 tubes, and then 0.0125% (w/v), 0.025% (w/v), and 0.05% (w/v) Ethylparaben were added to them, respectively; • f) Positive control: a broth-containing test tube with Candida but without sodium benzoate, sodium dehydroacetate, sodium propionate, sorbic acid, or Ethylparaben. • g) Negative control: a broth-containing test tube without Candida, sodium benzoate, sodium dehydroacetate, sodium propionate, sorbic acid, or Ethylparaben; (3) Experimental Methods:
The Candidal suspensions were prepared under stringent aseptic manipulation techniques. The colonies of various Candidal strains were diluted with saline, respectively. The turbidity was adjusted with a turbiditor to 0.5M (about 10^8CFU/ml), and then 1 ml 0.5M bacterial solution was added to 9 ml broth and was 10 times diluted, so that each Candidal suspension comprised Candidal organisms at 10^7CFU/ml.
Under stringent aseptic manipulation techniques, 100 μl bacterial solution thus prepared was added to each of the aforesaid a˜f test tubes and the positive control tube, and no bacterial solution was added to the negative control tube g.
These tubes were incubated in a biochemical incubator at 37.5° C. for 72 hours. The turbidity of the test tubes were observed and recorded.

CCOC(=O)c1ccc(O)cc1 [0.05% Ethylparaben, Ethylparaben]
+: Candida growth, Strain 2 | Candida growth, Strain 3 | Candida growth, Strain 4 | Candida growth, Strain 6 | Candida growth, Strain 7 | Candida growth, Strain 8 | Candida growth, Strain 10 | Candida growth, Strain 11
8: number of the 11 Candida strains that grew (listed as 0.05% (w/v) Ethylparaben)
−: Candida growth, Strain 1 | Candida growth, Strain 5 | Candida growth, Strain 9

O=C([O-])c1ccccc1.[Na+] [0.025% sodium benzoate, sodium benzoate]
+: Candida growth, Strain 1 | Candida growth, Strain 2 | Candida growth, Strain 3 | Candida growth, Strain 4 | Candida growth, Strain 5 | Candida growth, Strain 6 | Candida growth, Strain 7 | Candida growth, Strain 8 | Candida growth, Strain 9 | Candida growth, Strain 10 | Candida growth, Strain 11
11/11: number of the 11 Candida strains that grew

C/C=C/C=C/C(=O)[O-].[K+] [0.0125% potassium sorbate, potassium sorbate]
+: Candida growth, Strain 1 | Candida growth, Strain 3 | Candida growth, Strain 4 | Candida growth, Strain 5 | Candida growth, Strain 6 | Candida growth, Strain 7 | Candida growth, Strain 8 | Candida growth, Strain 10 | Candida growth, Strain 11
−: Candida growth, Strain 2 | Candida growth, Strain 9

CC(=O)c1c([O-])cc(C)oc1=O.[Na+] [0.01% sodium dehydroacetate, sodium dehydroacetate]
−: Candida growth, Strain 2 | Candida growth, Strain 5 | Candida growth, Strain 9 | Candida growth, Strain 11
+: Candida growth, Strain 1 | Candida growth, Strain 3 | Candida growth, Strain 4 | Candida growth, Strain 6 | Candida growth, Strain 7 | Candida growth, Strain 8 | Candida growth, Strain 10
7: number of the 11 Candida strains that grew (listed as 0.01% (w/v) sodium dehydroacetate)

C/C=C/C=C/C(=O)[O-].[K+] [0.025% potassium sorbate, potassium sorbate]
+: Candida growth, Strain 1 | Candida growth, Strain 3 | Candida growth, Strain 4 | Candida growth, Strain 5 | Candida growth, Strain 6 | Candida growth, Strain 7 | Candida growth, Strain 8 | Candida growth, Strain 10 | Candida growth, Strain 11
9: number of the 11 Candida strains that grew (listed as 0.025% (w/v) potassium sorbate)
−: Candida growth, Strain 2 | Candida growth, Strain 9

C/C=C/C=C/C(=O)[O-].[K+] [0.00625% potassium sorbate, potassium sorbate]
−: Candida growth, Strain 9
+: Candida growth, Strain 1 | Candida growth, Strain 2 | Candida growth, Strain 3 | Candida growth, Strain 4 | Candida growth, Strain 5 | Candida growth, Strain 6 | Candida growth, Strain 7 | Candida growth, Strain 8 | Candida growth, Strain 10 | Candida growth, Strain 11
10: number of the 11 Candida strains that grew (listed as 0.00625% (w/v) potassium sorbate)

CCC(=O)[O-].[Na+] [0.0625% sodium propionate, sodium propionate]
+: Candida growth, Strain 1 | Candida growth, Strain 2 | Candida growth, Strain 3 | Candida growth, Strain 4 | Candida growth, Strain 5 | Candida growth, Strain 6 | Candida growth, Strain 7 | Candida growth, Strain 8 | Candida growth, Strain 9 | Candida growth, Strain 10 | Candida growth, Strain 11
11: number of the 11 Candida strains that grew (listed as 0.0625% (w/v) sodium propionate)

CC(=O)c1c([O-])cc(C)oc1=O.[Na+] [0.005% sodium dehydroacetate, sodium dehydroacetate]
−: Candida growth, Strain 5 | Candida growth, Strain 9
+: Candida growth, Strain 1 | Candida growth, Strain 2 | Candida growth, Strain 3 | Candida growth, Strain 4 | Candida growth, Strain 6 | Candida growth, Strain 7 | Candida growth, Strain 8 | Candida growth, Strain 10 | Candida growth, Strain 11

CCOC(=O)c1ccc(O)cc1 [0.0125% Ethylparaben, Ethylparaben]
11: number of the 11 Candida strains that grew (listed as 0.0125% (w/v) Ethylparaben)
+: Candida growth, Strain 1 | Candida growth, Strain 2 | Candida growth, Strain 3 | Candida growth, Strain 4 | Candida growth, Strain 5 | Candida growth, Strain 6 | Candida growth, Strain 7 | Candida growth, Strain 8 | Candida growth, Strain 9 | Candida growth, Strain 10 | Candida growth, Strain 11

CC(=O)c1c([O-])cc(C)oc1=O.[Na+] [0.0025% sodium dehydroacetate, sodium dehydroacetate]
+: Candida growth, Strain 1 | Candida growth, Strain 2 | Candida growth, Strain 3 | Candida growth, Strain 4 | Candida growth, Strain 6 | Candida growth, Strain 7 | Candida growth, Strain 8 | Candida growth, Strain 9 | Candida growth, Strain 10 | Candida growth, Strain 11
10: number of the 11 Candida strains that grew (listed as 0.0025% (w/v) sodium dehydroacetate)
−: Candida growth, Strain 5

CCC(=O)[O-].[Na+] [0.25% sodium propionate, sodium propionate]
5: number of the 11 Candida strains that grew (listed as 0.25% (w/v) sodium propionate)
+: Candida growth, Strain 3 | Candida growth, Strain 4 | Candida growth, Strain 7 | Candida growth, Strain 8 | Candida growth, Strain 10
−: Candida growth, Strain 1 | Candida growth, Strain 2 | Candida growth, Strain 5 | Candida growth, Strain 6 | Candida growth, Strain 9 | Candida growth, Strain 11

CCOC(=O)c1ccc(O)cc1 [0.025% Ethylparaben, Ethylparaben]
+: Candida growth, Strain 1 | Candida growth, Strain 2 | Candida growth, Strain 3 | Candida growth, Strain 4 | Candida growth, Strain 5 | Candida growth, Strain 6 | Candida growth, Strain 7 | Candida growth, Strain 8 | Candida growth, Strain 9 | Candida growth, Strain 10 | Candida growth, Strain 11
